Our source for the IC50 and Ki values is BindingDB's records for doi:10.1002/cbic.200300724 (The Scripps Research Institute, 2003).

The test addresses T1, Gag-Pol polyprotein [489-587,G537V,H558K,V571A] (Human immunodeficiency virus, UniProt P12497, G537V/H558K/V571A).
T1 construct: 489-587
Briefly: Inhibiton Activity Assay. Here is the method: The inhibition activity against HIV-1 PR and three mutants (G48V, V82F, V82A)were done in 96 well microtiter plate and were assayed. Wells that showed 50% inhibition of the enzyme activity were selected and diluted to 10nM and screened again.

Where “and” joins values, the source holds several entries; their conditions need not be identical. Identical values can stand only once.

Regarding `COc1ccc(S(=O)(=O)N(CC(C)C)C[C@@H](O)[C@H](Cc2ccccc2)n2cc(COC(=O)N[C@H]3c4ccccc4C[C@H]3O)nn2)cc1` [HIV-1 PR Inhibitor, compound 6], the IC50 (in general, the concentration needed to halve the response being measured) is 6 nM and 19 nM and 39 nM and 46 nM.
`COc1ccc(S(=O)(=O)N(CC(C)C)C[C@@H](O)[C@H](Cc2ccccc2)n2cc(CNC(=O)c3ccc(CNC(=O)OC(C)(C)C)cc3)nn2)cc1` [HIV-1 PR Inhibitor, compound 8]: the IC50 is 13 nM and 24 nM and 17 nM and 52 nM; the Ki (usually the dissociation constant of the complex between target and ligand, obtained from inhibition or displacement) was 4 nM and 13 nM and 9.7 nM and 30 nM.
